Tests used:
Vero E6 cells = experiment: Cytotoxicity, MTT assay
in vitro = conditions: African green monkey
SARS-CoV-2 = experiment: Time-of-drug-addition assay (qRT-PCR of viral RNA in supernatant); assay type: cell-based; conditions: 25 µM, Vero E6, MOI 0.01, qRT-PCR 18 h post-infection
Procedure: To explore which steps of the SARS-CoV-2 replication cycle were interrupted by the test compounds, we performed a time-of-drug-addition assay for compounds 874 and 876, which were selected as representatives with different substituents at positions N1 and N3. Cells were treated with 25 µm of these compounds at various stages of infection (entry, full time and post-entry) which was followed by qRT-PCR assays.
The assays were performed as described previously. Briefly, Vero E6 cells were seeded into 96-well plates and treated with 874 or 876 (25 µM) at different stages of virus infection (full-time, entry and post-entry). The cells were infected with SARS-CoV-2 (MOI = 0.01) and then incubated for 1 h. The viral inoculum was then removed, and the cells were washed twice with PBS. At 18 h post-infection, the cell culture supernatant of each time point experiment was collected for viral yield measurements using qRT–PCR, as described in [31, 33].
Figure 3 Time-of-drug-addition Assay. Vero E6 cells were treated with the compounds at different time points of the viral replication cycle as described in the Materials and Methods chapter. For all experimental groups, cells were infected with SARS-CoV-2 at an MOI of 0.01. Viral RNA copies in the supernatant were quantified by qRT-PCR at 18 h post-infection. All results are shown as mean ± SEM (n = 3). One-way ANOVA with Tukey’s post hoc test: ** p < 0.01, *** p < 0.001 and **** p < 0.0001.

[1] = biological target: SARS-CoV-2 RdRp (NSP12, NSP7 and NSP8) (Severe acute respiratory syndrome coronavirus 2, UniProt P0DTD1); experiment: Inhibition of SARS-CoV-2 RNA-dependent RNA polymerase activity (Profoldin kit); assay type: biochemical
Procedure: SARS-CoV-2 RdRp activity was inhibited by 876 at 100 µM and 50 µM, by 100% and 60%, respectively (Figure 6).
The activity of SARS-CoV-2 RdRp was assessed using the SARS-CoV-2 RNA-dependent RNA polymerase kit plus (Profoldin #S2RPA100KE), according to the manufacture instructions. In brief, reactions were carried out at 35 °C for 2 h in the presence or absence (control) of the test compound. Then, fluorescent dye was added, and fluorescence was determined using a Qubit fluorimeter (Thermo Fisher, MA, USA). The inhibition of RdRp activity was calculated from the values obtained for control samples.
Figure 6 Uracil Derivative 876 Inhibit the Transcriptional Activity of SARS-CoV-2 RNA-dependent RNA polymerase. Transcriptional inhibition plot of the SARS-CoV-2 replication complex treated with 876 or PBS (control) (n = 3). Results are representative mean ± SEM. One-way ANOVA with Tukey’s post hoc test: *** p < 0.001 and **** p < 0.0001.

| Molecule | melting point [°C] | CC50 (in vitro) [µM] | further results |
| --- | --- | --- | --- |
| 4-[5-[3-[5-(2-Bromophenoxy)pentyl]-2,6-dioxo-5-methyl-3,6-dihydropyrimidin-1(^2H)-yl]pentyloxy]benzoic acid [Compound 872] |  |  | CC50 (Vero E6 cells; 72 h): > 50 µM |
| O=C(O)c1ccc(OCCCCn2c(=O)ccn(Cc3cccc4ccccc34)c2=O)cc1 [Compound 601, 4-[4-[2,6-Dioxo-3-(naphthyl-1-methyl)-3,6-dihydropyrimidin-1(^2H)-yl]butoxy]benzoic acid] | 183 to 184.5 | > 50 |  |
| O=c1ccn(Cc2c3ccccc3cc3ccccc23)c(=O)n1CCCCCCOc1ccc(Br)cc1 [Compound 611, 1-(Anthracen-9-ylmethyl)-3-[6-(4-bromophenoxy)hexyl]uracil] |  | > 50 |  |
| O=C(O)c1ccc(OCCCCCn2c(=O)ccn(CCCCCOc3ccc(F)cc3)c2=O)cc1 [Compound 870, 4-[5-[3-[5-(4-Fluorophenoxy)pentyl]-2,6-dioxo-3,6-dihydropyrimidin-1(^2H)-yl]pentyloxy]benzoic acid] | 133 to 135 | > 50 |  |
| O=C(O)c1ccc(OCCCCCn2c(=O)ccn(CCCCCOc3ccccc3Br)c2=O)cc1 [Compound 871, 4-[5-[3-[5-(2-Bromophenoxy)pentyl]-2,6-dioxo-3,6-dihydropyrimidin-1(^2H)-yl]pentyloxy]benzoic acid] |  | > 25 | Effect on cell proliferation / cell death (Vero E6 cells): reduced cell proliferation without significant cell death |
| O=C(O)c1ccc(OCCCCn2c(=O)ccn(CCCOc3ccc(Br)cc3)c2=O)cc1 [Compound 873, 4-[4-[3-[3-(4-Bromophenoxy)propyl]-2,6-dioxo-3,6-dihydropyrimidin-1(^2H)-yl]butoxy]benzoic acid] | 122 to 124 | > 50 |  |
| Cc1cc(C)cc(OCCCCCn2ccc(=O)n(CCCCCOc3ccc(C(=O)O)cc3)c2=O)c1 [Compound 874, 4-[5-[3-[5-(3,5-Dimethylphenoxy)pentyl]-2,6-dioxo-3,6-dihydropyrimidin-1(^2H)-yl]pentyloxy]benzoic acid] |  | > 25 | Production of viral RNA, compound added at entry step (SARS-CoV-2): did not inhibit the production of viral RNA; Virus replication (viral load in supernatant), compound added full time (SARS-CoV-2): inhibited virus replication; Effect on cell proliferation / cell death (Vero E6 cells): reduced cell proliferation without significant cell death |
| O=C(O)c1ccc(Cn2c(=O)ccn(CCCCCOc3ccc(Br)cc3)c2=O)cc1 [Compound 875] |  | > 50 |  |
| O=C(O)c1ccc(OCCCCCn2c(=O)ccn(Cc3c4ccccc4cc4ccccc34)c2=O)cc1 [Compound 876] | 173 to 176 | > 50 | Production of viral RNA, compound added at entry step (SARS-CoV-2): did not inhibit the production of viral RNA; Virus replication (viral load in supernatant), compound added full time (SARS-CoV-2): inhibited virus replication; Viral load, compound added post-entry (SARS-CoV-2; post-entry): reduced the viral load; inhibition at 50 µM ([1]; 50 µM): 60%; inhibition at 100 µM ([1]; 100 µM): 100% |
| O=C(O)c1ccc(OCCCCn2c(=O)ccn(Cc3ccc4ccccc4c3)c2=O)cc1 [Compound 1005, 4-[4-[2,6-Dioxo-3-(naphthyl-2-methyl)-3,6-dihydropyrimidin-1(^2H)-yl]butoxy]benzoic acid] | 143.5 to 145 | > 50 |  |
| O=C(O)c1ccc(OCCCCn2c(=O)ccn(Cc3ccc(Br)c4ccccc34)c2=O)cc1 [Compound 1006, 4-[4-[3-(4-Bromonaphthyl-1-methyl)-2,6-dioxo-3,6-dihydropyrimidin-1(2H)-yl]butoxy]benzoic acid] | 195.5 to 197.5 | > 50 |  |
| O=C(O)c1ccc(OCCCn2c(=O)ccn(CCCCCCCCCCCCOc3ccc(Br)cc3)c2=O)cc1 [Compound 1007, 4-[3-[3-[12-(4-Bromophenoxy)dodecyl]-2,6-dioxo-3,6-dihydropyrimidin-1(^2H)-yl]propoxy]benzoic acid] |  | > 25 | Effect on cell proliferation / cell death (Vero E6 cells): reduced cell proliferation without significant cell death |
